In ChEMBL document CHEMBL1154308, “Carteriosulfonic acids A-C, GSK-3beta inhibitors from a Carteriospongia sp” (J Nat Prod, 2009):
The source made the active and inactive calls. The rule behind the calls is not given here.

What was measured:
[1] = Inhibition of rabbit GSKbeta assessed as [32P]-phosphorylation of substrate after 1 hr by scintillation counting; set-up: species or system Oryctolagus cuniculus
Oryctolagus cuniculus = species: Oryctolagus cuniculus; experiment: Inhibition of rabbit GSKbeta assessed as [32P]-phosphorylation of substrate up to 50 uM after 1 hr by scintillation counting

SMILES | IC50 [1] | inhibition (Oryctolagus cuniculus)
CCCCC/C=C/C(O)CCCCCCCCCCCCCC(=O)OC(C)C[C@H](O)[C@H](O)C[C@H](O)CCC(=O)NCCS(=O)(=O)O (mixture of isomers) [CARTERIOSULFONIC ACID C] | 6.8 µM | 
CCCCC/C=C/C(O)CCCCC/C=C/C(CCCCCCCC(=O)OC(C)C[C@H](O)[C@H](O)C[C@H](O)CCC(=O)NCCS(=O)(=O)O)OC(C)=O (some centres undefined) [CARTERIOSULFONIC ACID B] | 6.8 µM | 
CC(O)C[C@H](O)[C@H](O)C[C@H](O)CCC(=O)NCCS(=O)(=O)O (some centres undefined) |  | inactive
CCCCC/C=C/C(O)CCCCC/C=C/C(O)CCCCCCCC(=O)OC(C)C[C@H](O)[C@H](O)C[C@H](O)CCC(=O)NCCS(=O)(=O)O (mixture of isomers) [CARTERIOSULFONIC ACID A] | 12.5 µM | 
